16 molecules from PubChem BioAssay (NCI) can be followed below.

Some test systems named below: NCI-H460 lung; LOX IMVI melanoma; SNB-19 CNS; OVCAR-4 ovarian; DMS 114 small cell lung; RPMI-8226 leukemia; LXFL 529 NSCLC; NCI-H522 lung; COLO 205 colon; MCF7 breast.
Holding throughout (test): growth of human tumour cells (NCI), 48 h

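Five compound concentrations were applied to cells in 96-well plates for 48 hours; endpoints were derived by simple linear interpolation of the resulting dose-response curve. TGI is the concentration that stops growth completely.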

With `CCOC(=O)NC(=O)c1cn(C2OC(COC(=O)CCCCCCCCC(=O)OCC3OC(n4cc(C(=O)NC(=O)OCC)c(=O)[nH]c4=O)C4OC(C)(C)OC34)C3OC(C)(C)OC32)c(=O)[nH]c1=O` (configuration not stated), the TGI with NCI-H460 lung, with LOX IMVI melanoma, in the assay on SNB-19 CNS, in the assay on OVCAR-4 ovarian, in the assay with DMS 114 small cell lung and in the assay with RPMI-8226 leukemia was above 100 µM in each case. The TGI in the assay with LXFL 529 NSCLC was above 100 µM.
Take `Fc1ccc2c(c1)cc1ccc3cccc4ccc2c1c34`: the TGI with NCI-H522 lung, in the assay on COLO 205 colon, in the assay on LOX IMVI melanoma, with SNB-19 CNS, in the assay on OVCAR-4 ovarian and with DMS 114 small cell lung was above 100 µM each time. In addition, the TGI in the assay on LXFL 529 NSCLC was above 100 µM.
Consider `COc1ccc2c(c1OC)C(C=C(c1ccccc1)c1ccccc1)CN(C)C2` (configuration not stated), for which the TGI in the assay on NCI-H522 lung is 41.5 µM; in the assay on NCI-H460 lung, 31.9 µM; with COLO 205 colon it was 28.5 µM; in the assay with SNB-19 CNS it was above 100 µM; with OVCAR-4 ovarian, above 100 µM; in the assay on DMS 114 small cell lung, 29.3 µM. The TGI with RPMI-8226 leukemia was found to be 50.8 µM; in the assay on LXFL 529 NSCLC, 34.7 µM.
With `CCCCCCC/C=C1\CCC(CN(C)C)C1=O` (configuration not stated), the TGI was 11.2 µM with NCI-H522 lung; 40.5 µM in the assay on NCI-H460 lung; 25.5 µM in the assay with COLO 205 colon; 15 µM in the assay with LOX IMVI melanoma; 33.8 µM in the assay on SNB-19 CNS; 33.6 µM in the assay with OVCAR-4 ovarian. The TGI with MCF7 breast was 16.4 µM; in the assay with RPMI-8226 leukemia, 5.26 µM; with LXFL 529 NSCLC it was 20.8 µM.
On to `CC(C)(C)C1CCC(=O)C(C(O)CC2CC(=O)N(c3ccccc3)C(=O)C2)C1` (configuration not stated), for which the TGI with NCI-H522 lung, in the assay on NCI-H460 lung, in the assay on COLO 205 colon, in the assay with LOX IMVI melanoma, in the assay on SNB-19 CNS and in the assay with OVCAR-4 ovarian was above 100 µM throughout. Further, the TGI in the assay with DMS 114 small cell lung, in the assay on RPMI-8226 leukemia and in the assay on LXFL 529 NSCLC was above 100 µM each time.
In the case of `CCCCCN(CCCCC)C(=O)[C@H](CCC(=O)OCc1ccccc1)NC(=O)c1cc2ccccc2[nH]1`, the TGI with NCI-H522 lung, in the assay with NCI-H460 lung, in the assay with COLO 205 colon, in the assay with LOX IMVI melanoma, in the assay with SNB-19 CNS and in the assay with OVCAR-4 ovarian was above 100 µM in each case. For the same molecule, the TGI is above 100 µM in the assay with DMS 114 small cell lung, 7.74 µM in the assay on RPMI-8226 leukemia and above 100 µM with LXFL 529 NSCLC.
As for `O=C(COC(=O)c1cccc2c(=O)c3ccccc3[nH]c12)Nc1ccc(S(=O)(=O)Nc2ncccn2)cc1`, the TGI in the assay with NCI-H522 lung is 58.2 µM; with NCI-H460 lung, above 100 µM; in the assay with COLO 205 colon it was above 100 µM; with LOX IMVI melanoma, above 100 µM; in the assay with SNB-19 CNS it was 93.2 µM; in the assay with OVCAR-4 ovarian it was above 100 µM. In addition, the TGI in the assay on DMS 114 small cell lung, in the assay on RPMI-8226 leukemia and with LXFL 529 NSCLC was above 100 µM throughout.
`O=C(CC1SC(=Nc2ccccc2Cl)NC1=O)Nc1ccc(Cl)cc1` (configuration not stated): the TGI in the assay on NCI-H460 lung is above 100 µM; with COLO 205 colon, 48.7 µM; in the assay on LOX IMVI melanoma, above 100 µM; in the assay with SNB-19 CNS it was above 100 µM; with OVCAR-4 ovarian it was above 100 µM; in the assay on DMS 114 small cell lung, above 100 µM. Also, the TGI in the assay on LXFL 529 NSCLC is above 100 µM.
Regarding `[N-]=[N+]=NC1C2CC3CC(C2)CC1C3` (configuration not stated), the TGI in the assay with NCI-H522 lung, with NCI-H460 lung, with COLO 205 colon, in the assay on LOX IMVI melanoma, with SNB-19 CNS and with OVCAR-4 ovarian was above 100 µM each time. Moreover, the TGI in the assay on DMS 114 small cell lung, with RPMI-8226 leukemia and with LXFL 529 NSCLC was above 100 µM throughout.
In the case of `COc1cc2ccc3c4cc(OC)c(OC(C)C)cc4c[n+](C)c3c2cc1OC`, the TGI was 70.1 µM with NCI-H522 lung; above 100 µM in the assay on NCI-H460 lung; 36.5 µM in the assay on COLO 205 colon; above 100 µM with LOX IMVI melanoma; above 100 µM in the assay on SNB-19 CNS; above 100 µM with OVCAR-4 ovarian. In addition, the values for the TGI in the assay with DMS 114 small cell lung, in the assay with RPMI-8226 leukemia and in the assay on LXFL 529 NSCLC were 41.4 µM, above 100 µM and above 100 µM, respectively.
`CCC(C)(C)NS(=O)(=O)c1ccccc1`: the TGI in the assay on NCI-H460 lung, in the assay on OVCAR-4 ovarian, in the assay with DMS 114 small cell lung, in the assay with RPMI-8226 leukemia and in the assay with LXFL 529 NSCLC was above 100 µM each time.
`CCN(CC)/[N+]([O-])=N/OCC(C)O` (configuration not stated): the TGI with NCI-H522 lung, with NCI-H460 lung, in the assay with LOX IMVI melanoma, in the assay with SNB-19 CNS and in the assay on DMS 114 small cell lung was above 100 µM in each case.
Turning to `Cn1cc2ccccc2c1-c1nc(F)nc(Nc2ccc(N)cc2)n1`, the TGI came to 28.9 µM with NCI-H522 lung; 31.5 µM in the assay with NCI-H460 lung; 27 µM in the assay with LOX IMVI melanoma; 95.5 µM in the assay with SNB-19 CNS; 64.3 µM in the assay on OVCAR-4 ovarian; 38.1 µM with DMS 114 small cell lung. For the same molecule, the results for the TGI in the assay on RPMI-8226 leukemia and in the assay with LXFL 529 NSCLC were 76.5 µM and 30.9 µM, respectively.
In the case of `COc1cc(OC)cc(C(=O)Cc2c(C(=O)c3ccccc3)c3ccccc3n2C(=O)c2ccccc2)c1`, the TGI in the assay with NCI-H522 lung is 45 µM; in the assay on NCI-H460 lung, above 100 µM; in the assay with COLO 205 colon, 93.4 µM; with LOX IMVI melanoma it was above 100 µM; in the assay with SNB-19 CNS it was 69 µM; in the assay with OVCAR-4 ovarian, above 100 µM. The TGI with DMS 114 small cell lung, in the assay with RPMI-8226 leukemia and in the assay on LXFL 529 NSCLC was above 100 µM throughout.
Consider `CN=C(N)NC`, for which the TGI in the assay on NCI-H522 lung, in the assay on NCI-H460 lung, in the assay on COLO 205 colon, with LOX IMVI melanoma, in the assay with SNB-19 CNS and with OVCAR-4 ovarian was above 100 µM each time. The TGI with DMS 114 small cell lung, in the assay with RPMI-8226 leukemia and in the assay on LXFL 529 NSCLC was above 100 µM throughout.
Consider `CC(=O)Oc1cc(Cl)c(OC(C)=O)c2c(OC(C)=O)c(C)c(O[Si](C)(C)C(C)(C)C)cc12`, for which the TGI turned out to be 19 µM in the assay with NCI-H522 lung; 16.5 µM in the assay with NCI-H460 lung; 32.5 µM with COLO 205 colon; 12.9 µM with LOX IMVI melanoma; 25.7 µM in the assay on SNB-19 CNS; 26.2 µM in the assay with OVCAR-4 ovarian. Also, the TGI was determined as 15.1 µM in the assay on DMS 114 small cell lung and 9.41 µM with RPMI-8226 leukemia.
